Laboratory results taken from US10683297B2 (Sunshine Lake Pharma Co., Ltd., priority 2017, dated 2020).

Legend:
[1] = Compound stability in rat liver microsomes; format: in vitro ADME; conditions: for CLint scaled at 5 μM: liver microsomes, pH 7.4, in vivo CLint extrapolated from rat liver microsome incubation; for half-life at 5 μM: rat liver microsomes 0.5 mg protein/mL, compound 5 μM, NADPH 1.0 mM, pH 7.4, 37° C., read-out: Rat T1/2
Method in brief: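 Compounds (5 μM) incubated at 37 °C with human or rat liver microsomes (0.5 mg protein/mL) and 1.0 mM NADPH in 100 mM phosphate buffer pH 7.4, 0.05% DMSO, in duplicate. Sampled 0–60 min, quantified by LC/MS/MS as % of time zero; CLint extrapolated.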

[2] = Pharmacokinetics after intravenous and oral administration in rats; format: in vivo; conditions: for Clearance (CL) after iv dosing / AUC(0-t) / half-life / Vd: dose 1 mg/kg (Ex. 9: 0.6, Ex. 18: 0.5, Ex. 50: 0.96 mg/kg), iv dosing; for AUC(0-t) / half-life / Vd / bioavailability: rat, plasma; for Vd: read-out: Vss; for bioavailability: oral (generally 5 or 10 mg/kg) versus iv dosing, read-out: F (oral bioavailability)
Method in brief: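 Rats dosed i.v. (about 0.5, 0.6, 1 or 2 mg/kg) or p.o. (5 or 10 mg/kg) as solution, suspension or capsule. Plasma sampled over 24 h and quantified by LC/MS/MS in MRM mode with ESI.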

[3] = target: T1, Aurora-A (h) (Homo sapiens, UniProt O14965); assay: Aurora-A (h) kinase assay; format: biochemical; conditions: [γ-33P-ATP] 10 μM or KM values; 40 minutes at room temperature
T1 construct: purchased Millipore UK Ltd (assays performed there as a service)
T1 sequence (O14965 1-403): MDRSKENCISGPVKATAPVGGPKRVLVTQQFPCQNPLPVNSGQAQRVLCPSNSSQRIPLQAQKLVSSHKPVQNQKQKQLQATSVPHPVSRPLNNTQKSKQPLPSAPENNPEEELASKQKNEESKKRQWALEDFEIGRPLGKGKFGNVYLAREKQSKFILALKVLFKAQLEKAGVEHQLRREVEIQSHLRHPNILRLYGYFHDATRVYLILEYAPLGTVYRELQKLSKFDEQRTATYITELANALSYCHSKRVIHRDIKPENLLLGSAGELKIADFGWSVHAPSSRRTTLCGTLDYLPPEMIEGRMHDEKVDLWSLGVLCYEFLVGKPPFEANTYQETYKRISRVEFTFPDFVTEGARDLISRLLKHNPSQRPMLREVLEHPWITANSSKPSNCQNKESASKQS
Description: The above assay procedure can be used to determine the IC50 for inhibition and/or the inhibition constant, Ki. […] The IC50 value is estimated by preparing a 10 point curve using a ½ log dilution series (for example, a typical curve may be prepared using the following compound concentrations: 3 μM, 1 μM, 0.3 μM, 0.1 μM, 0.03 μM, 0.01 μM, 0.003 μM, 0.001 μM, 0.0003 μM and 0 μM).
Aurora-A (h) is incubated with 8 mM MOPS pH 7.0, 0.2 mM EDTA, 200 μM LRRASLG (Kemptide), 10 mM MgAcetate and [γ-^33P-ATP] […] The reaction is initiated by the addition of the MgATP mix. After incubation for 40 minutes at room temperature, the reaction is stopped by the addition of 3% phosphoric acid solution. 10 μL of the reaction is then spotted onto a P30 filtermat and washed three times for 5 minutes in 75 mM phosphoric acid and once in methanol prior to drying and scintillation counting.
The kinase assays described herein were performed at Millipore UK Ltd, Dundee Technology Park, Dundee DD2 1SW, UK.

| SMILES | CLint scaled at 5 μM [1] [mL/min/kg] | half-life at 5 μM [1] [min] | Clearance (CL) after iv dosing [2] [L/h/kg] | AUC(0-t) [2] [ng·h/mL] | half-life [2] [min] | Vd [2] [L/kg] | bioavailability [2] [%] | IC50 [3] [nM] |
| --- | --- | --- | --- | --- | --- | --- | --- | --- |
| Cn1nnc2cc(Nc3ncc(Cl)c(NC4CCN(c5ccc(C#N)nn5)CC4)n3)ccc21 [Example 47, 6-(4-((5-chloro-2-((l-methyl-1H-benzo[d][1,2,3]triazol-5-yl)amino)pyrimidin-4-yl)amino)piperidin-1-yl)pyridazine-3-carbonitrile] | 89.4 | 27.8 | 0.70 | 1490 | 46.8 | 0.87 | 144 | 116 |
| CC(C)(O)Cc1nc2ccc(Nc3ncc(Cl)c(NC4CCN(c5ccc(C#N)cn5)CC4)n3)cn2n1 [Example 67, 6-(4-((5-chloro-2-((2-(2-hydroxy-2-methylpropyl)-[1,2,4]triazolo[1,5-a]pyridin-6-yl)amino)pyrimidin-4-yl)amino)piperidin-1-yl)nicotinonitrile] | 80.6 | 30.8 | 0.67 | 1470 | 87 | 1.25 | 49.7 | 987 |
| CC(C)(O)Cc1nc2cc(Nc3ncc(Cl)c(NC4CCN(c5ccc(C#N)nn5)CC4)n3)ccn2n1 [Example 77, 6-(4-((5-chloro-2-((2-(2-hydroxy-2-methylpropyl)-[1,2,4]triazolo[1,5-a]pyridin-7-yl)amino)pyrimidin-4-yl)amino)piperidin-1-yl)pyridazine-3-carbonitrile] | 38.2 | 65 | 9.07 | 1860 | 50.6 | 0.623 |  | 699 |

Further lines, results first:

| CLint scaled at 5 μM [1] [mL/min/kg] | half-life at 5 μM [1] [min] | Clearance (CL) after iv dosing [2] [L/h/kg] | AUC(0-t) [2] [ng·h/mL] | half-life [2] [min] | Vd [2] [L/kg] | bioavailability [2] [%] | IC50 [3] [nM] | SMILES |
| --- | --- | --- | --- | --- | --- | --- | --- | --- |
| 32.5 | 76.3 | 0.29 | 3400 | 60.6 | 0.42 | 126 | 187 | Cn1cnc2cc(Nc3ncc(Cl)c(NC4CCN(c5ccc(C#N)cn5)CC4)n3)ccc21 [Example 46, 6-(4-((5-chloro-2-((1-methyl-1H-benzo[d]imidazol-5-yl)amino)pyrimidin-4-yl)amino)piperidin-1-yl)nicotinonitrile] |
| 44.6 | 55.7 | 0.67 | 1510 | 64.8 | 0.89 | 79.4 | 315 | Cc1nc2cc(Nc3ncc(Cl)c(NC4CCN(c5ccc(C#N)cn5)CC4)n3)ccc2n1C [Example 48, 6-(4-((5-chloro-2-((1,2-dimethyl-1H-benzo[d]imidazol-5-yl)amino)pyrimidin-4-yl)amino)piperidin-1-yl)nicotinonitrile] |
| 14.6 | 170 | 1.33 | 752 | 56.4 | 1.7 | 69.8 | 40 | CC(C)(O)Cn1nnc2cc(Nc3ncc(Cl)c(NC4CCN(c5ccc(C#N)cn5)CC4)n3)ccc21 [Example 69, 6-(4-((5-chloro-2-((1-(2-hydroxy-2-methylpropyl)-1H-benzo[d][1,2,3]triazol-5-yl)amino)pyrimidin-4-yl)amino)piperidin-1-yl)nicotinonitrile] |
| 157 | 15.8 | 11.2 | 1490 | 59.2 | 0.795 | 84.8 | 561 | CC(C)(O)Cc1nc2cc(Nc3ncc(Cl)c(NC4CCN(c5ccc(C#N)cn5)CC4)n3)ccn2n1 [Example 78, 6-(4-((5-chloro-2-((2-(2-hydroxy-2-methylpropyl)-[1,2,4]triazolo[1,5-a]pyridin-7-yl)amino)pyrimidin-4-yl)amino)piperidin-1-yl)nicotinonitrile] |
